System: human prostate cancer 22Rv-1 cell subcutaneous xenograft
Assay: Pharmacodynamic assessment, 22Rv-1 xenograft model (Example 17)
Assay type: in vivo, BALB/c nude male mouse
Conditions: for Safety: 2.87 / 2.88 mg/kg i.v biw×3w
Experimental: Objective: Pre-clinical anti-tumor effect assessment of CR202 series of compounds in BALB/c nude male mouse model with human prostate cancer 22Rv-1 cell subcutaneous xenograft.
Procedures: 22Rv-1 (CL-00458) cells were cultured in a PRMI1640 medium containing 10% fetal bovine serum. The 22Rv-1 cells in the exponential phase were collected and resuspended in PBS to an appropriate concentration for subcutaneous tumor grafting in nude mice. The mice were subcutaneously grafted at the right back with 1×10^7 22Rv-1 cells, which were resuspended in a mixture of PBS and matrigel (1:1, 0.1 mL/mouse). The growth of the tumors was observed periodically. When the mean volume of the tumors reached 100-150 mm^3, the mice were randomized according to the tumor size. After the administration, the routine monitoring included the effect on tumor growth and the effect of treatment on the normal behavior of the animals, specifically the activity, food and water intake, weight gain or loss, the eyes, the hair, and other abnormal conditions. Clinical symptoms observed during the study were recorded in the raw data. After the administration was started, the body weight and tumor size of the mice were measured periodically. The tumor volume was calculated using the following formula: V=1/2×(a×b^2), where a and b denote the long diameter and short diameter of the tumor, respectively.

[1] = 2.88 mg/kg i.v BIW×3, day 29 after grouping

## CCCOCCOCCOCCO[Si](Oc1ccc(COC(=O)N(CCOCCC#Cc2cccc3c2CN(C2CCC(=O)NC2=O)C3=O)[C@H]2CC[C@@H](n3cc(-c4ccc(Cc5ncc6c(n5)N(C5CCCC5)[C@H](CC)C(=O)N6C)c(OC)c4)nn3)CC2)cc1)(C(C)C)C(C)C (stereo partly shown) [CR202HT]
[1]
  Mean tumor volume: 690.37 mm^3
  TGI: 58.19%
  Safety: good safety

## CC[C@@H]1C(=O)N(C)c2cnc(Nc3ccc(-c4cn([C@H]5CC[C@@H](N(CCOCCC#Cc6cccc7c6CN(C6CCC(=O)NC6=O)C7=O)C(=O)OCc6ccc(OP(=O)(O)O)c(C(=O)NCCOCCOCCOCCn7cc(C[C@H](NC(=O)[C@H](CCCCN)NC(=O)[C@H](CC(=O)O)NC(=O)[C@H](CC(=O)O)NC(=O)Cc8ccc(CNC(=O)NCCCC[C@H](NC(=O)N[C@@H](CCC(=O)O)C(=O)O)C(=O)O)cc8)C(=O)N[C@@H](CCCCNC(=O)CC[C@H](NC(=O)c8ccc(NCc9cnc%10[nH]c(N)nc(=O)c%10n9)cc8)C(=O)O)C(N)=O)nn7)c6)CC5)nn4)cc3OC)nc2N1C1CCCC1 (stereo partly shown) [CR202LB]
  Safety: good safety
